Data on 29 compounds can be found in patent publication US7741493B2, “Heterocyclic compounds as P2X7 ion channel blockers” (Aventis Pharmaceuticals Inc., priority 2003, dated 2010).

The target of assay [1] is T1, P2X7 (Homo sapiens, UniProt Q99572).
T1 sequence (Q99572 1-595): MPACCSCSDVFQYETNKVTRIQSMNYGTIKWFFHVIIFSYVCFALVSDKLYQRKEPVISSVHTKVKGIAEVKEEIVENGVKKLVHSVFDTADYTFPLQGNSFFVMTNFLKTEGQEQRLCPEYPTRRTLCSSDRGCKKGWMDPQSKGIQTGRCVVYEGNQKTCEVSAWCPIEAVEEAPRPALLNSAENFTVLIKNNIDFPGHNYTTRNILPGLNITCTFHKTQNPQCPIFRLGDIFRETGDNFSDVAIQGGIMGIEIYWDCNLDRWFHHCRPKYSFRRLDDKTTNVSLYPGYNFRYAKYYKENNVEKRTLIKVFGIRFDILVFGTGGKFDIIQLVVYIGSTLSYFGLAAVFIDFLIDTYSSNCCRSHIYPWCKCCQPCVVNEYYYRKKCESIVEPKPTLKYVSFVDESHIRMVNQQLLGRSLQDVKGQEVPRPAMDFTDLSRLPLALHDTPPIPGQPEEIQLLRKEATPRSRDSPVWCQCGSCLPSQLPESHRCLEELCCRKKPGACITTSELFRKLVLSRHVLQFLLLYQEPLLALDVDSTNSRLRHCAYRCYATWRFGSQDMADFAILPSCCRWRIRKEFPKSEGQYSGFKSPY
Kind of assay: YO-PRO-1 dye uptake assay in U373 cells stably expressing P2X7. Set-up: The complete open reading frame of human P2X7 was amplified from Incyte clone 148057; expressed in transfected cells. It counts as cell-based. The note with it: dye uptake through P2X7, U373 cells, 300 μM BzATP, 5 μM YO-PRO-1, test compounds 30 nM to 3 μM; read-out: IC50. In a few lines:
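U373 cells stably expressing human P2X7 preincubated 20 min at 37° C. with compound (30 nM to 3 μM) in Mg/Ca-free HBSS. YO-PRO-1 (5 μM final) and BzATP (300 μM final) then added for 1.5 h at 37° C.; dye-uptake fluorescence compared with compound-free control.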

Assay [2] addresses T1, P2X7. Kind of assay: BzATP-induced IL-1β secretion from human monocytes/macrophages activated by beta amyloid peptide 1-42 (ELISA). The class given is cell-based. Set-up: Monocytes were isolated from peripheral blood mononuclear cells (PBMCs); endogenous in cells; host or cells: primary monocytes isolated from peripheral blood mononuclear cells. The settings on record: BzATP (300 μM)-induced IL-1β secretion, human monocytes primed with beta amyloid 1-42 (5 μM); read-out: IC50. Here is the method: Cell isolation: Monocytes were isolated from peripheral blood mononuclear cells (PBMCs) as follows. Whole blood was layered directly onto Histopak 1077-1 columns (Sigma Biochemicals) and centrifuged at 800×g for 15 minutes. The PBMC band of cells was removed to a fresh 50 ml culture tube and diluted 1:1 with wash buffer (Phosphate buffered saline, pH 7.4 containing 2 mM EDTA and 5 mg/ml BSA) followed by centrifugation at 800×g for 5 minutes. Cells were then washed by sequential resuspension of the cell pellet in wash buffer and centrifugation at 600×g for 5 minutes. The wash process was repeated until the supernatant was clear of contaminating platelets (5 to 6 washes). Monocytes were then purified from the PBMCs by negative selection using a monocyte isolation kit (Miltenyi Biotec, Inc) that contains antibodies to non-monocytic cells, running the cells over a magnetic column to remove antibody-bound cells, and collecting the flow through volume of monocytes. Monocytes were washed once with wash buffer and seeded at 10E5 cells per well in 100 μl serum-free RPMI 1640 in 96-well plates and incubated for 1 hour at 37° C. in a 5% CO2/95% humidified tissue culture incubator. After 1 hour, the medium was replaced with 100 μl complete culture medium (RPMI 1640, 10% human serum-type AB (heat inactivated), 25 mM HEPES, 2 mM glutamine, 50 U/ml each of penicillin and streptomycin) and incubated overnight (16 hours). Dosing regimen: The next day, the culture medium was replaced with 100 μl fresh complete culture medium in the absence or presence of human beta amyloid 1-42 peptide (5 μM) and incubated at 37° C. in a 5% CO2/95% humidified tissue culture incubator for 5 hours. Medium was then removed and discarded. Each well was washed once with Hanks buffered saline (HBSS) containing 1 mM CaCl2 followed by the addition of 80 μl of HBSS/CaCl2. […] Medium was then removed to new 96-well plates for storage at −70° C. until the IL-1β content was quantitated by ELISA (from R&D Systems). The cells were washed once with HBSS/CaCl2 followed by lysing the cells with 100 μl ice cold lysis buffer (100 mM Tris, pH 7.6, 1% triton X-100, and 1 tablet per 30 ml Complete TM protease inhibitor from Roche Biochemicals, Inc). Cell lysates were stored at −70° C. until the IL-1β was quantitated by ELISA. The results thus obtained for percent inhibition of BzATP-induced IL-1β secretion using a few of the P2X-7 compounds of the present invention are summarized in Table 7.
In general terms: An ELISA detects its analyte on a solid surface through an enzyme-linked reagent.

A further assay relates to Balb/cByJ mice. Briefly: monoclonal antibody (mAb) type II collagen induced arthritis. The note with it: 3 mg/kg×3, PO. The class given is in vivo, mouse. Here is the method:
This Example illustrates the anti-inflammatory activity of the compounds of this invention using a model of Balb/c mice subjected to monoclonal antibody (mAb) type II collagen induced arthritis.
A compound of this invention is dissolved in vehicle of 2% Tween 80/0.9% NaCl, at doses of 50 or 30 and administered orally (50 mg/kg) or intraperitoneally at 30 mg/kg once daily for 3 consecutive days after monoclonal antibody of collagen was injected. Dosing volume is 20 ml/kg.
Groups of 5 Balb/cByJ mice strain, 6-8 weeks of age, are used for the induction of arthritis by monoclonal antibodies (mAbs) responding to type II collagen, plus lipopolysaccharide (LPS). The animals are administered intravenously with a combination of 4 different mAbs (D8, F10, DI-2G and A2) in total of 4 mg/mouse at day 0, and followed by intravenous 25 μg of LPS 72 hours later (day 3). From day 3, one hour after LPS administration, ML-659 at 50 mg/kg (PO) or 30 mg/kg (IP) and vehicle (2% Tween 80/0.9% NaCl, PO) as well as the positive control indomethacin, 3 mg/kg (PO) are administrated once daily for 3 consecutive days. A plethysmometer (Ugo Basile Cat # 7150) with water cell (12 mm diameter) is used for the measurement of increase in volume of the two hind paws at day 0, 5, 7, 10, 14, and 17. The percent inhibition of increase in volume is calculated by the following formula: Inhibition (%): [1−(Tn−To)/(Cn−Co)]×100 Where: Co (Cn): volume of day 0 (day n) in vehicle control To (Tn): volume of day 0 (day n) in test compound-treated group The reduction of both of two hind paws edema by more than 30% is considered significant.

Several values for one entry are separate records, joined by “and”; a condition that tells them apart may be missing. Identical values can stand only once. Counter-ions that a name gives are not always drawn.

One may read the IC50 as the midpoint of a concentration-inhibition curve. Take `Clc1ccc(CNC2=N[C@@H](c3ccccc3)[C@@H](c3ccccc3)N2)cc1` [cis-4,5-diphenyl-2-(4-chlorobenzyl)amino-4,5-dihydro-1H-imidazole]: the IC50 on P2X7 [1] amounted to 0.471 µM.

Turning to `Fc1ccc(CC2=N[C@H](c3ccccc3)[C@H](c3ccccc3)N2)cc1` [cis-4,5-diphenyl-2-(4-fluorobenzyl)-4,5-dihydro-1H-imidazole], on P2X7 [1], the IC50 stood at 0.046 µM. Still for that read-out and setting: to `Fc1ccc(CSC2=N[C@@H](c3ccccc3)[C@@H](c3ccccc3)N2)cc1` [cis-4,5-diphenyl-2-(4-fluorobenzyl)thio-4,5-dihydro-1H-imidazole] belongs 0.3 µM. Still for that read-out and setting: to `Cc1ccc(CC2=N[C@H](c3ccccc3)[C@H](c3ccccc3)N2)cc1` [cis-4,5-diphenyl-2-(4-methylbenzyl)-4,5-dihydro-1H-imidazole] belongs 0.083 µM and 0.08 µM; to `COC(C1=N[C@@H](c2ccccc2)[C@@H](c2ccccc2)N1)c1ccccc1` (stereo partly drawn) [cis-4,5-diphenyl-2-(methoxy-phenyl-methyl)-4,5-dihydro-1H-imidazole], 0.101 µM; to `c1ccc([C@H]2NC(CCc3ccccn3)=N[C@H]2c2ccccc2)cc1` [cis-4,5-diphenyl-2-[2-(2-pyridyl)ethyl)-4,5-dihydro-1H-imidazole], 0.72 µM. For the compound `Fc1ccc(CCNC2=N[C@@H](c3ccccc3)[C@@H](c3ccccc3)N2)cc1` [cis-4,5-diphenyl-2-[2-(4-fluorophenyl)ethylamino]-4,5-dihydro-1H-imidazole], on P2X7 [1], the IC50 came to 0.331 µM.

Turning to `c1ccc(CCOCC2=N[C@@H](c3ccccc3)[C@@H](c3ccccc3)N2)cc1` [cis-4,5-diphenyl-2-[(2-phenethyloxy)methyl]-4,5-dihydro-1H-imidazole], the IC50 at P2X7 [1] is 0.768 µM.

Regarding `c1ccc(CCNC2=N[C@@H](c3ccccc3)[C@@H](c3ccccc3)N2)cc1` [cis-4,5-diphenyl-2-[(2-phenyl)ethyl]amino-4,5-dihydro-1H-imidazole], the IC50 on P2X7 [1] came to 0.113 µM.

Consider `Fc1ccc(CNC2=N[C@@H](c3ccccc3)[C@@H](c3ccccc3)N2)cc1F` [cis-4,5-diphenyl-2-[(3,4-difluorobenzyl)amino]-4,5-dihydro-1H-imidazole], for which the IC50 on P2X7 [1] stood at 0.065 µM. The same measure, in the same setting: to `c1ccc(CNC2=N[C@@H](c3ccccc3)[C@@H](c3ccccc3)N2)cc1` [cis-4,5-diphenyl-2-benzylamino-4,5-dihydro-1H-imidazole] belongs 0.135 µM; to `c1ccc(COCC2=N[C@@H](c3ccccc3)[C@@H](c3ccccc3)N2)cc1` [cis-4,5-diphenyl-2-benzyloxymethyl-4,5-dihydro-1H-imidazole], 0.325 µM.

For `c1ccc(CSC2=N[C@@H](c3ccccc3)[C@@H](c3ccccc3)N2)cc1` [cis-4,5-diphenyl-2-benzylthio-4,5-dihydro-1H-imidazole], at P2X7 [1], the IC50 is 0.214 µM. Still for that read-out and setting: then `c1ccc(OCC2=N[C@@H](c3ccccc3)[C@@H](c3ccccc3)N2)cc1` [cis-4,5-diphenyl-2-phenoxymethyl-4,5-dihydro-1H-imidazole], with 0.612 µM; and `OC(C1=N[C@@H](c2ccccc2)[C@@H](c2ccccc2)N1)c1ccccc1` (stereo partly drawn) [cis-(4,5-diphenyl-4,5-dihydro-1H-imidazol-2-yl)-phenyl-methanol], with 0.241 µM.

`Fc1ccc(CNC2=NC(c3ccccc3)C(c3ccccc3)N2)cc1` (stereo not drawn) [hydrochloride]: the IC50 at P2X7 [2] stood at 0.693 µM.

For the compound `COc1ccc2c(c1)c(CC(=O)O)c(C)n2C(=O)c1ccc(Cl)cc1` [indomethacin], the “effect relative to the vehicle treated group (hind paws edema)” value came out at 63% in the assay with Balb/cByJ mice (day 5); 70% in the assay with Balb/cByJ mice (day 7); 80% with Balb/cByJ mice (day 10); 88% in the assay on Balb/cByJ mice (day 14); 85% in the assay on Balb/cByJ mice (day 17). As for `C[C@@H](C1=N[C@@H](c2ccccc2)[C@@H](c2ccccc2)N1)c1ccccc1` [trifluoroacetate], on P2X7 [1], the IC50 came to 0.108 µM. Same read-out and setting: to `C[C@H](C1=N[C@@H](c2ccccc2)[C@@H](c2ccccc2)N1)c1ccccc1` [trifluoroacetate] belongs 0.11 µM; to `Cc1ccc(CC2=N[C@@H](c3ccccc3)[C@@H](c3ccccc3)N2)cc1F` [trifluoroacetate], 0.178 µM; to `Cc1ccc(F)c(CC2=N[C@@H](c3ccccc3)[C@@H](c3ccccc3)N2)c1F` [trifluoroacetate], 0.594 µM. On the same count and under the same terms, to `Cc1ccc(F)cc1CC1=N[C@@H](c2ccccc2)[C@@H](c2ccccc2)N1` [trifluoroacetate] belongs 0.319 µM. On the same count and under the same terms, to `Fc1c(Cl)cccc1CC1=N[C@@H](c2ccccc2)[C@@H](c2ccccc2)N1` [trifluoroacetate] belongs 0.142 µM; to `Fc1ccc(CC2=N[C@@H](c3ccccc3)[C@@H](c3ccccc3)N2)c(Cl)c1` [trifluoroacetate], 0.12 µM; to `Fc1ccc(F)c(CC2=N[C@@H](c3ccccc3)[C@@H](c3ccccc3)N2)c1` [trifluoroacetate], 0.142 µM. In the case of `Fc1cccc(Cl)c1CC1=N[C@@H](c2ccccc2)[C@@H](c2ccccc2)N1` [trifluoroacetate], on P2X7 [1], the IC50 was found to be 0.826 µM. Still for that read-out and setting: to `Fc1cccc(F)c1CC1=N[C@@H](c2ccccc2)[C@@H](c2ccccc2)N1` [trifluoroacetate] belongs 0.966 µM.

`O=C(Nc1ccccc1)OC(C1=NC(c2ccccc2)C(c2ccccc2)N1)c1ccccc1` (stereo not drawn) [trifluoroacetate]: at P2X7 [1], the concentration for half-maximal inhibition (IC50) worked out at 0.625 µM. The same measure, in the same setting: then `c1ccc([C@H]2NC(C3(c4ccccc4)CC3)=N[C@H]2c2ccccc2)cc1` [trifluoroacetate], with 0.334 µM.
